Test results published in ChEMBL document CHEMBL5223130, “Targeting SARS-CoV-2 Main Protease for Treatment of COVID-19: Covalent Inhibitors Structure-Activity Relationship Insights and Evolution Perspectives” (J Med Chem, 2022).

What was measured:
SARS-CoV-2 [1] = format: functional, organism-based, Vero E6; conditions: Severe acute respiratory syndrome coronavirus 2, 107, Vero C1008
SARS-CoV-2 [2] = format: functional, organism-based, Vero E6; conditions: Severe acute respiratory syndrome coronavirus 2, Vero C1008

| Compound | EC50 (SARS-CoV-2 [1]) [nM] | EC50 (SARS-CoV-2 [2]) [nM] |
| --- | --- | --- |
| O=C[C@H](C[C@@H]1CCNC1=O)NC(=O)[C@@H]1[C@H]2CCC[C@H]2CN1C(=O)COc1ccc(Cl)cc1Cl | 540 |  |
| COc1ccc(OCC(=O)N2C[C@H]3[C@@H]([C@H]2C(=O)N[C@H](C=O)C[C@@H]2CCNC2=O)C3(C)C)cc1 | 860 |  |
| O=c1c(O)c(-c2cc(O)c(O)c(O)c2)oc2cc(O)cc(O)c12 [MYRICETIN] |  | 8000 |
